# Reference: PubChem BioAssay (NCI)
#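 In this assay, cells in 96-well plates receive the compound at five concentrations for 48 hours. Endpoints are linearly interpolated between the surrounding concentrations. Definition used: TGI = concentration required for complete inhibition of growth.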
# Columns and labels:
# Assay in all cases: NCI-60 cell line screen, 48 h
# ACHN renal = tested on: ACHN renal
# CCRF-CEM leukemia = tested on: CCRF-CEM leukemia
# DU-145 prostate = tested on: DU-145 prostate
# EKVX NSCLC = tested on: EKVX NSCLC
# HCT-15 colon = tested on: HCT-15 colon
# KM12 colon = tested on: KM12 colon
# MDA-MB-231 breast = tested on: MDA-MB-231 breast
# NCI-H460 lung = tested on: NCI-H460 lung
# NCI/ADR-RES ovarian = tested on: NCI/ADR-RES ovarian
# OVCAR-3 ovarian = tested on: OVCAR-3 ovarian
# OVCAR-4 ovarian = tested on: OVCAR-4 ovarian
# OVCAR-5 ovarian = tested on: OVCAR-5 ovarian
# SK-MEL-5 melanoma = tested on: SK-MEL-5 melanoma
# SK-OV-3 ovarian = tested on: SK-OV-3 ovarian
# SNB-19 CNS = tested on: SNB-19 CNS
# SNB-75 CNS = tested on: SNB-75 CNS
# T-47D breast = tested on: T-47D breast
# TK-10 renal = tested on: TK-10 renal
# UACC-257 melanoma = tested on: UACC-257 melanoma
# HOP-92 NSCLC = tested on: HOP-92 NSCLC
Compound,TGI (ACHN renal) [µM],TGI (CCRF-CEM leukemia) [µM],TGI (DU-145 prostate) [µM],TGI (EKVX NSCLC) [µM],TGI (HCT-15 colon) [µM],TGI (KM12 colon) [µM],TGI (MDA-MB-231 breast) [µM],TGI (NCI-H460 lung) [µM],TGI (NCI/ADR-RES ovarian) [µM],TGI (OVCAR-3 ovarian) [µM],TGI (OVCAR-4 ovarian) [µM],TGI (OVCAR-5 ovarian) [µM],TGI (SK-MEL-5 melanoma) [µM],TGI (SK-OV-3 ovarian) [µM],TGI (SNB-19 CNS) [µM],TGI (SNB-75 CNS) [µM],TGI (T-47D breast) [µM],TGI (TK-10 renal) [µM],TGI (UACC-257 melanoma) [µM],TGI (HOP-92 NSCLC) [µM]
Cc1nc2cccc([N+](=O)[O-])c2n1CCCN(C)C,> 100,> 100,> 100,> 100,> 100,> 100,> 100,> 100,> 100,> 100,> 100,> 100,> 100,> 100,> 100,> 100,> 100,> 100,> 100,
CS/C=C\C(=O)O[C@H]1C[C@@H]2[C@@H](O)c3occ(C)c3C[C@]2(C)[C@@H](C)C1,63.2,> 100,90.3,> 100,95.1,> 100,41.7,60.7,42.3,31,51.6,> 100,28.2,> 100,> 100,,76.9,> 100,30.5,65.6
C/C(=C1\C(=O)C(c2ccccc2)N(c2ccccc2)C1=O)c1ccc(Cl)cc1 (stereo not given),45,,34,79.6,43.6,57.1,57.6,> 100,> 100,30.6,42.8,,28.3,30.8,32.7,,45.3,52.5,30.8,13.6
CC(C)(SCc1ccccc1)C(N)C(=O)O (stereo not given),> 100,> 100,> 100,> 100,> 100,> 100,> 100,> 100,> 100,> 100,> 100,> 100,> 100,,> 100,> 100,> 100,> 100,> 100,> 100
O=P1(Oc2ccccc2)NCc2ncccc2O1 (stereo not given),> 100,> 100,> 100,> 100,> 100,> 100,> 100,> 100,> 100,> 100,> 100,> 100,> 100,,> 100,> 100,> 100,,> 100,> 100
CC[C@H]1C=CCC[C@@]2(C[C@@H]3CC[C@@H]4[C@H](C(=O)OCCCCCCCCCCCCCCCC(=O)N(CCCNC(C)=O)C[C@H](CCNC(C)=O)OC(C)=O)[C@]5(CCC[C@@H](C)O5)NC(=[N+]34)N2)O1,1.37,0.0469,1.59,1.89,2.78,1.75,1.93,1.14,8.18,2.03,1.84,1.8,0.647,2.73,2.22,,2.77,2.07,0.291,0.32
Nc1ccc(OCCCc2c(-c3ccccc3)nc(N)[nH]c2=O)cc1,> 100,> 100,> 100,> 100,> 100,> 100,> 100,> 100,> 100,> 100,> 100,> 100,> 100,> 100,> 100,> 100,81.2,,> 100,
C=CCN1C[C@@H](C)N([C@@H](c2ccc(C(=O)N(CC)CC)cc2)c2cccc(OC)c2)C[C@@H]1C,> 100,> 100,> 100,> 100,> 100,> 100,> 100,,> 100,> 100,> 100,> 100,> 100,> 100,> 100,,> 100,,,> 100
CN(C)/C=C/c1c2c(nc3ccccc13)C(=O)c1ccccc1C2=O,3.44,3.36,2.69,5.47,2.71,3.62,4.26,1.4,5.6,0.622,5.42,8.45,0.536,11.7,4.88,,5.19,6,1.77,30
O=c1[nH]c(=O)n2n1C1C=CC2CC1,> 100,> 100,> 100,> 100,> 100,> 100,> 100,> 100,> 100,> 100,,> 100,> 100,> 100,> 100,> 100,> 100,> 100,> 100,> 100
CCOC(=O)N1N(c2ccccc2)C(=O)C1(c1ccccc1)c1ccccc1,> 100,> 100,> 100,> 100,> 100,> 100,> 100,,> 100,> 100,> 100,> 100,> 100,> 100,> 100,,> 100,> 100,> 100,> 100
NC(=O)CNC(=O)[C@@H]1C[C@@H](OCCC(=O)O)CN1C(=O)OCc1ccccc1,> 100,> 100,> 100,> 100,> 100,> 100,> 100,> 100,> 100,> 100,> 100,> 100,> 100,> 100,> 100,> 100,> 100,> 100,> 100,
Cc1nc2ccccc2n1Cc1nnc2n1N=C(c1ccccc1)CS2,> 100,> 100,> 100,> 100,> 100,> 100,62.9,> 100,> 100,> 100,> 100,> 100,> 100,> 100,> 100,59,43.5,> 100,65.3,
NC(C(=O)OC(=O)c1ccccc1)C(=O)OC(=O)c1ccccc1,> 100,> 100,> 100,> 100,> 100,> 100,> 100,> 100,> 100,> 100,> 100,> 100,> 100,,> 100,> 100,> 100,> 100,> 100,
O=S(=O)(/N=C(\NO)Nc1ccc(Cl)cc1)C1CC=C(c2ccon2)S1 (stereo not given),> 100,72.1,> 100,> 100,> 100,> 100,> 100,> 65.8,> 100,> 100,> 100,> 100,> 62.1,> 100,> 100,,> 100,> 100,> 100,> 85.5
CCCCN1C(=O)CS/C1=N/Nc1nc2c([nH]1)c(=O)n(C)c(=O)n2C,> 100,54.8,> 100,> 100,> 100,> 100,> 100,> 100,> 100,> 100,71.4,59.4,> 100,> 100,> 100,,> 100,> 100,> 100,> 100
Brc1ccc(-c2cc(-c3ccc4c(c3)OCO4)c(-c3cccs3)n2Cc2ccccc2)cc1,> 100,> 100,> 100,> 100,> 100,> 100,> 100,> 100,> 100,,> 100,,> 100,> 100,> 100,> 100,> 100,> 100,> 100,
NC(=O)C1N=NSC1NC(=O)c1ccc([N+](=O)[O-])cc1 (stereo not given),> 100,> 100,> 100,> 100,> 100,> 100,> 100,> 100,> 100,> 100,> 100,> 100,69.8,> 100,> 100,> 100,> 100,> 100,> 100,
CC(=O)N(C(C)=O)n1nc2c(n1)C(=O)c1ccccc1C2=O,> 100,> 100,> 100,> 100,> 100,> 100,> 100,> 100,> 100,> 100,> 100,> 100,> 100,> 100,> 100,,> 100,> 100,> 100,> 100
